# Source: US6358885B1, “Substituted phenylheterocyclic herbicides” (Mississippi State University, priority 1992, dated 2002)
# How the values were obtained:
# purple nutsedge = assay: Test B preemergence/postemergence greenhouse plant response rating 0 to 10; assay type: in vivo, Cyperus rotundus; settings: 0 to 10 scale
# In short: (§1)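 Planted seeds are treated preemergence with compound dissolved in a non-phytotoxic solvent, while postemergence applications go onto plants of two to eighteen cm. Plants stay in the greenhouse twelve to sixteen days and are then rated visually relative to controls.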
# morningglory = assay: Test C preemergence/postemergence greenhouse plant response rating 0 to 100; assay type: in vivo, Ipomoea hederacea; settings: POSTEMERGENCE; for Plant response rating, Morningglory: 0 to 100 scale
# In short: (§2)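 Compounds in non-phytotoxic solvent went onto sandy loam before emergence (seeded one day earlier) or onto plants at the one-to-four leaf stage. Duck salad was treated via flood water (~2.5 cm, maintained) over silt loam.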
# ryegrass = assay: as above; assay type: in vivo, Lolium multiflorum; settings: POSTEMERGENCE
# In short: as §2
# rice = assay: Test C flood test plant response rating 0 to 100; assay type: in vivo, Oryza sativa; settings: for Plant response rating (0 to 100), Rice Japonica: under POSTEMERGENCE head (flood test species); for Plant response rating Rice Japonica: flood test species listed under POSTEMERGENCE, 0 to 100 scale
# In short: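 Compounds in non-phytotoxic solvent applied preemergence to sandy loam one day after planting, postemergence at the 1–4 leaf stage, or to ~2.5 cm floodwater over silt loam.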
# rape = assay: Test C preemergence/postemergence greenhouse plant response rating 0 to 100; assay type: in vivo, Brassica napus; settings: POSTEMERGENCE; for Plant response rating, Rape: 0 to 100 scale
# In short: as §2
# bedstraw = assay: as above; assay type: in vivo, Galium aparine; settings: POSTEMERGENCE; for Plant response rating, Bedstraw: 0 to 100 scale
# In short: as §2
# barnyardgrass = assay: Test B preemergence/postemergence greenhouse plant response rating 0 to 10; assay type: in vivo, Echinochloa crus-galli; settings: 0 to 10 scale
# In short: as §1
# sorghum = assay: as above; assay type: in vivo, Sorghum bicolor; settings: 0 to 10 scale
# In short: as §1
# chickweed = assay: as above; assay type: in vivo, Stellaria media; settings: 0 to 10 scale
# In short: as §1
# blackgrass = assay: as above; assay type: in vivo, Alopecurus myosuroides; settings: 0 to 10 scale
# In short: as §1
# crabgrass = assay: Test C preemergence/postemergence greenhouse plant response rating 0 to 100; assay type: in vivo, Digitaria sanguinalis; settings: POSTEMERGENCE; for Plant response rating, Crabgrass: 0 to 100 scale
# In short: as §2
# wild oat = assay: as above; assay type: in vivo, Avena fatua; settings: POSTEMERGENCE; for Plant response rating, Wild oat: 0 to 100 scale
# In short: as §2
# corn [1] = assay: Test B preemergence/postemergence greenhouse plant response rating 0 to 10; assay type: in vivo, Zea mays; settings: 0 to 10 scale
# In short: as §1
# corn [2] = assay: Test C preemergence/postemergence greenhouse plant response rating 0 to 100; assay type: in vivo, Zea mays; settings: POSTEMERGENCE; for Plant response rating, Corn: 0 to 100 scale
# In short: as §2
# barley = assay: Test B preemergence/postemergence greenhouse plant response rating 0 to 10; assay type: in vivo, Hordeum vulgare; settings: 0 to 10 scale
# In short: as §1
# wheat = assay: Test C preemergence/postemergence greenhouse plant response rating 0 to 100; assay type: in vivo, Triticum aestivum; settings: POSTEMERGENCE; for Plant response rating, Wheat: 0 to 100 scale
# In short: as §2
# velvetleaf = assay: Test B preemergence/postemergence greenhouse plant response rating 0 to 10; assay type: in vivo, Abutilon theophrasti; settings: 0 to 10 scale
# In short: as §1
# sugar beet = assay: as above; assay type: in vivo, Beta vulgaris; settings: 0 to 10 scale
# In short: as §1
compound,measurement,setting,value
CC(C)OC(=O)COc1cc(-c2nn3c(c2Cl)CCCC3)c(F)cc1Cl [Compound 39],"Plant response rating, Nutsedge","purple nutsedge; POSTEMERGENCE, Rate 50 g/ha",5
same,"Plant response rating, Nutsedge","purple nutsedge; PREEMERGENCE, Rate 50 g/ha",0
same,"Plant response rating, Nutsedge","purple nutsedge; Rate 200 g/ha, POSTEMERGENCE",4
same,"Plant response rating, Nutsedge","purple nutsedge; Rate 200 g/ha, PREEMERGENCE",0
same,"Plant response rating, Morningglory",morningglory; 62 g/ha,100
same,"Plant response rating, Morningglory",morningglory; 125 g/ha,100
same,"Plant response rating (0 to 100), Morningglory",morningglory; Rate 16 g/ha,60
same,"Plant response rating (0 to 100), Morningglory",morningglory; Rate 31 g/ha,100
same,Plant response rating Ryegrass,"ryegrass; 125 g/ha, 0 to 100 scale",20
same,"Plant response rating (0 to 100), Ryegrass",ryegrass; Rate 16 g/ha,10
same,"Plant response rating (0 to 100), Ryegrass",ryegrass; Rate 31 g/ha,10
same,"Plant response rating (0 to 100), Rice Japonica",rice; Rate 16 g/ha,20
same,"Plant response rating (0 to 100), Rice Japonica",rice; Rate 31 g/ha,30
same,Plant response rating Rice Japonica,rice; 62 g/ha,30
same,Plant response rating Rice Japonica,rice; 125 g/ha,30
same,"Plant response rating, Rape",rape; 62 g/ha,60
same,"Plant response rating, Rape",rape; 125 g/ha,70
same,"Plant response rating (0 to 100), Rape",rape; Rate 16 g/ha,20
same,"Plant response rating (0 to 100), Rape",rape; Rate 31 g/ha,50
same,"Plant response rating, Bedstraw",bedstraw; 62 g/ha,70
same,"Plant response rating, Bedstraw",bedstraw; 125 g/ha,100
same,"Plant response rating (0 to 100), Bedstraw",bedstraw; Rate 31 g/ha,60
same,"Plant response rating, Barnyardgrass","barnyardgrass; POSTEMERGENCE, Rate 50 g/ha",4
same,"Plant response rating, Barnyardgrass","barnyardgrass; POSTEMERGENCE, Rate 200 g/ha",6
same,"Plant response rating, Barnyardgrass","barnyardgrass; PREEMERGENCE, Rate 50 g/ha",0
same,"Plant response rating, Barnyardgrass","barnyardgrass; Rate 200 g/ha, PREEMERGENCE",2
same,"Plant response rating, Sorghum","sorghum; POSTEMERGENCE, Rate 50 g/ha",5
same,"Plant response rating, Sorghum","sorghum; PREEMERGENCE, Rate 50 g/ha",0
same,"Plant response rating, Sorghum","sorghum; Rate 200 g/ha, POSTEMERGENCE",5
same,"Plant response rating, Sorghum","sorghum; Rate 200 g/ha, PREEMERGENCE",0
same,"Plant response rating, Chickweed","chickweed; POSTEMERGENCE, Rate 50 g/ha",8
same,"Plant response rating, Chickweed","chickweed; POSTEMERGENCE, Rate 200 g/ha",10
same,"Plant response rating, Chickweed","chickweed; PREEMERGENCE, Rate 50 g/ha",0
same,"Plant response rating, Chickweed","chickweed; Rate 200 g/ha, PREEMERGENCE",5
same,"Plant response rating, Blackgrass","blackgrass; POSTEMERGENCE, Rate 50 g/ha",4
same,"Plant response rating, Blackgrass","blackgrass; POSTEMERGENCE, Rate 200 g/ha",4
same,"Plant response rating, Blackgrass","blackgrass; PREEMERGENCE, Rate 50 g/ha",0
same,"Plant response rating, Blackgrass","blackgrass; Rate 200 g/ha, PREEMERGENCE",2
same,"Plant response rating, Crabgrass",crabgrass; 62 g/ha,20
same,"Plant response rating, Crabgrass",crabgrass; 125 g/ha,30
same,"Plant response rating (0 to 100), Crabgrass",crabgrass; Rate 16 g/ha,10
same,"Plant response rating (0 to 100), Crabgrass",crabgrass; Rate 31 g/ha,10
same,"Plant response rating, Wild oat",wild oat; 62 g/ha,20
same,"Plant response rating, Wild oat",wild oat; 125 g/ha,30
same,"Plant response rating (0 to 100), Wild oat",wild oat; Rate 16 g/ha,10
same,"Plant response rating (0 to 100), Wild oat",wild oat; Rate 31 g/ha,20
same,"Plant response rating, Corn","corn [1]; POSTEMERGENCE, Rate 50 g/ha",5
same,"Plant response rating, Corn","corn [1]; POSTEMERGENCE, Rate 200 g/ha",5
same,"Plant response rating, Corn","corn [1]; PREEMERGENCE, Rate 50 g/ha",0
same,"Plant response rating, Corn","corn [1]; Rate 200 g/ha, PREEMERGENCE",0
same,"Plant response rating, Corn",corn [2]; 62 g/ha,30
same,"Plant response rating, Corn",corn [2]; 125 g/ha,30
same,"Plant response rating (0 to 100), Corn",corn [2]; Rate 16 g/ha,20
same,"Plant response rating (0 to 100), Corn",corn [2]; Rate 31 g/ha,30
same,"Plant response rating, Barley","barley; POSTEMERGENCE, Rate 50 g/ha",4
same,"Plant response rating, Barley","barley; POSTEMERGENCE, Rate 200 g/ha",6
same,"Plant response rating, Barley","barley; PREEMERGENCE, Rate 50 g/ha",0
same,"Plant response rating, Barley","barley; Rate 200 g/ha, PREEMERGENCE",0
same,"Plant response rating, Wheat",wheat; 62 g/ha,10
same,"Plant response rating, Wheat",wheat; 125 g/ha,20
same,"Plant response rating (0 to 100), Wheat",wheat; Rate 16 g/ha,10
same,"Plant response rating (0 to 100), Wheat",wheat; Rate 31 g/ha,10
same,"Plant response rating, Velvetleaf","velvetleaf; POSTEMERGENCE, Rate 50 g/ha",9
same,"Plant response rating, Velvetleaf","velvetleaf; PREEMERGENCE, Rate 50 g/ha",2
same,"Plant response rating, Velvetleaf","velvetleaf; Rate 200 g/ha, POSTEMERGENCE",10
same,"Plant response rating, Velvetleaf","velvetleaf; Rate 200 g/ha, PREEMERGENCE",4
same,"Plant response rating, Sugar beet","sugar beet; POSTEMERGENCE, Rate 50 g/ha",10
same,"Plant response rating, Sugar beet","sugar beet; PREEMERGENCE, Rate 50 g/ha",8
same,"Plant response rating, Sugar beet","sugar beet; Rate 200 g/ha, POSTEMERGENCE",10
same,"Plant response rating, Sugar beet","sugar beet; Rate 200 g/ha, PREEMERGENCE",10
